Measurements as given in patent publication US10583103B2, “Method of treating heart failure with preserved ejection fraction with probenecid” (University Of Cincinnati, priority 2013, dated 2020).
Like-named read-outs stand apart in the source and are kept apart here.

How the values were obtained:
TRPV2 = target: T1, TRPV2 (Homo sapiens, UniProt Q9Y5S1); settings: cited from earlier work
T1 sequence (Q9Y5S1 1-764): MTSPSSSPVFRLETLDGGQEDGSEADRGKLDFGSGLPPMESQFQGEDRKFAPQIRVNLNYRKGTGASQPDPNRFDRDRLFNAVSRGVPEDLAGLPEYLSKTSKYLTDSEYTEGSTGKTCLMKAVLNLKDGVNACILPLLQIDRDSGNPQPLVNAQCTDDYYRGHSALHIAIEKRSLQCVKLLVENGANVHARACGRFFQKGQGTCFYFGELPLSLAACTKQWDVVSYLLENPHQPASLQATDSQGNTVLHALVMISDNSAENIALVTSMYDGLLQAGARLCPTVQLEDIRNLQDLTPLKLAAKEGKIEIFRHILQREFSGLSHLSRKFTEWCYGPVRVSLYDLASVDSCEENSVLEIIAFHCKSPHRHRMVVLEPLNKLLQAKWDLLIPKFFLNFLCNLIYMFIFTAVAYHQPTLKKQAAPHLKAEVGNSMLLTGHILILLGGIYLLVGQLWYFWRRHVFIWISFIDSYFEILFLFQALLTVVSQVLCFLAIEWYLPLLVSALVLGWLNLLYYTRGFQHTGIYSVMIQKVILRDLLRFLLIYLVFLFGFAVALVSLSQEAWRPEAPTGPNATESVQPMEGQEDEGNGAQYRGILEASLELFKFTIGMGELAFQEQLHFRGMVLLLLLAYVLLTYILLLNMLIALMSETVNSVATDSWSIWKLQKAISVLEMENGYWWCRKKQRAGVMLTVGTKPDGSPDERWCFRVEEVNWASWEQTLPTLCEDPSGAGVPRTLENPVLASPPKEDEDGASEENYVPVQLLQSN

WT mice = experiment: Invasive cardiac hemodynamics in intact anesthetized mice (LV pressure development), wild type; format: in vivo, mouse
Experimental: (§1) All animal procedures were performed with the approval of the Institutional Animal Care and Use Committee (IACUC) of the University of Cincinnati and in accordance with the Guide for the Care and Use of Laboratory Animals (NIH, revised 1996). All wild type (WT) mice (B6129SF2/J F2 and C57BL6J, Jackson laboratories) and TRPV2^−/− mice (breeding pairs provided by Dr. M. Caterina, John's Hopkins, Baltimore, Md.) were males at 12-16 weeks of age (REF). Prior to experiments, mice were maintained on normal rodent chow and water ad libitum, and on a 14 hr/10 hr light/dark cycle (6 AM to 8 PM).
Measurements of left ventricular performance and regional blood flow were performed in separate groups of WT and TRPV2^−/− mice as previously described {Lorenz, 2008#1}. Briefly, mice were anesthetized with an intraperitoneal injection of ketamine (50 μg/gBW) and inactin (thiobutabarbital, 100 μg/gBW, Sigma, MA). A tracheotomy was performed (PE-90), and body temperature was monitored and maintained with a feedback-controlled heating table. The right femoral artery was cannulated with fluid-filled polyethylene tubing for measurement of blood pressure and connected to a low compliance pressure transducer (COBE Cardiovascular, Arvada, Colo.). The right femoral vein was cannulated for delivery of drugs. A high fidelity, 1.2F Scisense pressure catheter (Scisense, London, ON, Canada) was inserted into the right carotid artery and advanced into the left ventricle to monitor cardiac performance. ECG leads were placed on the right and left arms, and left leg and connected to a BIOAmp (ADInstruments, Colorado Springs, Colo.). For carotid blood flow measurements, the left carotid artery was isolated and fitted with a 0.5-PSB perivascular flow probe connected to a TS420 flow meter (Transonic Systems, Ithaca, N.Y.). Pressure, flow, and ECG signals were recorded and analyzed using a PowerLab system (ADInstruments). Hemodynamic measurements were taken at the basal state and after the administration of 30 and 100 μg/g doses of probenecid i.v., with 5 minutes between each dose (100 μg/μl delivered as 0.3 and 1.0 μl/gBW bolus). Measurements were taken from the final 30-40 seconds of each dosage period. Maximum dP/dt (dP/dtmax) and dP/dt at 40 mmHg of developed pressure (dP/dt40) were calculated from the first derivative of the pressure waveforms. Cerebral vascular resistance (CVR) was calculated from recorded channels of mean arterial pressure and mean cerebral blood flow (CVR=MAP/CBF).
Statistical analysis was performed by analysis of variance (ANOVA) using either a single factor within-subjects design, or a two- or three-factor mixed design with repeated measures as appropriate. Individual contrasts were used to compare group effects and interactions when needed, and the Tukey post-hoc test was used to compare individual means where appropriate (SigmaStat v3.5, Point Richmond, Calif.). Data are presented as means±S.E.M., and differences were regarded as significant at P<0.05.

TRPV2−/− mice = experiment: Invasive cardiac hemodynamics in intact anesthetized mice (LV pressure development), TRPV2 knockout; format: in vivo, mouse; settings: probenecid 30 and 100 μg/g i.v. bolus
Experimental: as §1
Measurements of left ventricular performance and regional blood flow were performed in separate groups of WT and TRPV2^−/− mice as previously described {Lorenz, 2008#1}. […] A tracheotomy was performed (PE-90), and body temperature was monitored and maintained with a feedback-controlled heating table. […] Pressure, flow, and ECG signals were recorded and analyzed using a PowerLab system (ADInstruments). […] Maximum dP/dt (dP/dtmax) and dP/dt at 40 mmHg of developed pressure (dP/dt40) were calculated from the first derivative of the pressure waveforms. Cerebral vascular resistance (CVR) was calculated from recorded channels of mean arterial pressure and mean cerebral blood flow (CVR=MAP/CBF). […]

[1] = test system: thoracic aortae of TRPV2−/− mice; experiment: Vascular smooth muscle reactivity in isolated aorta (DMT myograph), TRPV2 knockout; design: species or system mouse; developed tension: dose or concentration left out as unconfirmed; settings: for EC50: Mus musculus, phenylephrine pre-contracted, read-out: EC50 for the relaxing effect
[2] = test system: thoracic aortae of wild type mice; experiment: Vascular smooth muscle reactivity in isolated aorta (DMT myograph), wild type; design: species or system mouse; settings: for EC50: Mus musculus, phenylephrine pre-contracted, read-out: EC50 for the relaxing effect
[3] = test system: isolated WT cardiomyocytes; settings: putatively through TRPV2 stimulation; cited from earlier work
isolated aortae = experiment: Vasoconstrictor effect of probenecid in isolated aortae (cumulative concentration-force relationship); design: species or system mouse
[4] = endothelium-denuded (−E), pre-contracted with 3 mM phenylephrine

## CCCN(CCC)S(=O)(=O)c1ccc(C(=O)O)cc1 [probenecid]
TRPV2
  TRPV2 agonist activity: selective agonist of TRPV2
WT mice; WT mice, low (30 mg/kg) and high (100 mg/kg) doses
  lusitropy: increased lusitropy
WT mice; WT mice, probenecid 30 and 100 μg/g i.v. bolus
  contractile function (LV dP/dtmax, dP/dt40): robust stimulation of contractile function
WT mice; after i.v. bolus administration
  time to maximal effect on LV dP/dt: maximal within one minute
WT mice; after i.v. bolus administration, at the time of reported measurement
  duration of stable effect on LV dP/dt: at least 5 minutes
WT mice; rodents, summary statement
  cardiac relaxation and diastolic function: improved cardiac relaxation and improved diastolic function
TRPV2−/− mice
  contractile function (LV dP/dtmax, dP/dt40), effect relative to WT: markedly attenuated
[1]; intact endothelium (+E)
  EC50: 520 ± 110 µM
[1]; without endothelium (−E)
  EC50: 4590 ± 520 µM
[1]; [4]
  dilatory response, concentration threshold: no significant dilatory response until a concentration of 1 mM
[1]; endothelium-denuded (−E), pre-contracted with phenylephrine
  developed tension: about 25 % of maximum
[2]; intact endothelium (+E)
  EC50: 670 ± 210 µM
[2]; without endothelium (−E)
  EC50: 4560 ± 340 µM
[2]; [4]
  dilatory response, concentration threshold: no significant dilatory response until a concentration of 1 mM
[2]; endothelium-denuded (−E), pre-contracted with phenylephrine, 10 mM
  developed tension at 10 mM probenecid: about 25 % of maximum
[3]
  cytosolic Ca2+ concentrations and Ca2+ sparks: increases cytosolic Ca^2+ concentrations and increased Ca^2+ sparks
Isolated aortae; low and high doses, even in deendothelialized vessels (discussion)
  vasoactive effect: no significant vasoactive effect
Isolated aortae; with or without intact endothelium, concentrations as high as 10 mM
  vasoconstrictor effect (force production): no evidence was found of increased force production

## CNC[C@H](O)c1cccc(O)c1 [phenylephrine]
[1]; endothelium-denuded (−E), n=8
  maximal developed tension in response to phenylephrine: 6.07±0.55 mN
[1]; intact endothelium (+E)
  maximal developed tension in response to phenylephrine: 1.75±0.25 mN
[2]; endothelium-denuded (−E), n=8
  maximal developed tension in response to phenylephrine: 5.99±0.74 mN
[2]; intact endothelium (+E)
  maximal developed tension in response to phenylephrine: 1.45±0.12 mN
